Numbered stars: 1 amine (or outer) side, 2 acyl side, 3 side chain; on linkers, the order of the positions; unused ones are H or OH. Bridge positions count the residues as written; N and C are the ends. Square brackets hold non-standard residues; d marks the D form. Peptide text beside a SMILES is read from it. dAbu(3S-yl) = C[C@@H]([C@@H](N[*:1])C(=O)[*:2])[*:3]; pGlu = O=C1CC[C@@H](C(=O)O)N1
How the values were obtained:
[1] = Hydrophobicity and solubility of the peptide for intranasal formulation; format: physicochemical; details: in 10% (2-hydroxypropyl)-ß-cyclodextrin (HBC)
Protocol: For intranasal delivery, 1 mg of M89b was first dissolved in 566 µl 2,2,2-trifluorethanol, 566 µl 10% (2-hydroxypropyl)-ß-cyclodextrin (HBC), and 1 µl acetic acid and incubated at 60 °C for 20 min. Another 566 µl of 10% HBC were added. The peptide was then dried in a speed-vac, and the dried pellet was dissolved in 1132 µl water by vortexing and incubation at 60 °C. M871 and GALP were purchased from GL Biochem. M871 was dissolved in saline containing 10% HBC. GALP was dissolved in saline containing 5% α-cyclodextrin.

GAL2R [2] = target: T1, GAL2R (Homo sapiens, UniProt O43603); assay: Fluo-4 Direct calcium assay (Ca efflux) in HEK293 cells overexpressing GAL2R; format: cell-based; details: Table 3; HEK293 cells stably overexpressing GAL2R; Fluo-4, from 10 µM; (average) ratio, (n) in cell = number of assays; NA = ratio above 1000
T1 sequence (O43603 1-387): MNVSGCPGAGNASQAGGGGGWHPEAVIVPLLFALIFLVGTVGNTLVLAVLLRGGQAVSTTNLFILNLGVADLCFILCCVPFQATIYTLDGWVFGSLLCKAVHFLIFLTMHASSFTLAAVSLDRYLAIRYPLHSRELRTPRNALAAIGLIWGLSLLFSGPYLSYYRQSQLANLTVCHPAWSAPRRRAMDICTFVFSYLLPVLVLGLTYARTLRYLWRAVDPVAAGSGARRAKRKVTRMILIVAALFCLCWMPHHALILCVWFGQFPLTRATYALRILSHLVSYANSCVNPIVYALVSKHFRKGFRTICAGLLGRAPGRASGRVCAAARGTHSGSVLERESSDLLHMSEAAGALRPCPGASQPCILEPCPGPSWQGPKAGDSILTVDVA
Protocol: Calcium efflux was measured by using a Fluo-4 Direct Calcium Assay purchased from Thermo Fisher Scientific. HEK293 cells with stable overexpression of GAL2R (HEKR2) (kindly provided by Harald Dargatz, Molecular, Cellular and Pharmacobiology Section, Institute of Pharmaceutical Biology, University of Bonn, 53,115 Bonn, Germany) were used for analysis of the lanthipeptides. HEKR2 cells were seeded in a 96-well plate and grown overnight in DMEM supplemented with 10% FBS, 1% penicillin–streptomycin, 100 µg/ml Normocin, and 500 µg/ml G418 at 37 °C, 5% CO2 in a humidified incubator.
The next day, when the cells were nearly confluent, an equal amount of 2 × Fluo-4 Direct™ calcium reagent loading solution, containing 5 mM probenecid, was added to the wells, and the plate was incubated for 1 h at 37 °C. A serial 3 × dilution of the agonist compound in water was made, and 10 µl of the serial dilutions was applied to the cells in duplicate. The starting concentration of agonist in the assay was 10 µM. After 1–2 h of incubation at room temperature, the fluorescence was measured with excitation at 485/20 nm and emission at 528/20 nm with a Synergy HT Biotek reader.

GAL2R [3] = target: T1, GAL2R; assay: PathHunter eXpress β-arrestin recruitment assay, GAL2R; format: cell-based; parameters: expressed in transfected cells; details: Table 3; CHO-K1 cells co-expressing GAL2R and β-arrestin 2; 10 µM to 5 nM; (average) ratio, (n) in cell = number of assays; NA = ratio above 1000
Protocol: (§1) To evaluate the ability of lanthipeptides to recruit ß-arrestins via GAL1R or via GAL2R, we used the PathHunter® eXpress GAL1R, CHO-K1, β-arrestin GPCR Assay and the PathHunter® eXpress GAL2R, CHO-K1, β-arrestin, GPCR Assay from Eurofins-DiscoverX. The assays were performed according to the manufacturer’s instructions. Briefly, for one assay, CHO-K1 cells co-expressing GAL1R or GAL2R and β-arrestin (isoform 2) were diluted in AssayComplete™ Cell Plating Reagent, and 100 µl was seeded into each well of a 96-well plate. The plate was incubated at 37 °C, 5% CO2 in a humidified incubator. A serial 3 × dilution of the lanthipeptides in water was made (10 µM to 5 nM). After 48 h of incubation, 10 µl of the serial dilutions was applied to the cells in duplicate. The agonists were incubated for 90 min at 37 °C. Next, 55 µL of Working Detection Solution was added, and after 1 h of incubation at room temperature in the dark, the chemiluminescent signal was read with a Synergy HT Biotek reader.

GAL1R = target: T2, GAL1R (Homo sapiens, UniProt P47211); assay: PathHunter eXpress β-arrestin recruitment assay, GAL1R; format: cell-based; parameters: expressed in transfected cells; details: Table 3; CHO-K1 cells co-expressing GAL1R and β-arrestin 2; 10 µM to 5 nM; (average) ratio, (n) in cell = number of assays; NA = ratio above 1000
T2 sequence (P47211 1-349): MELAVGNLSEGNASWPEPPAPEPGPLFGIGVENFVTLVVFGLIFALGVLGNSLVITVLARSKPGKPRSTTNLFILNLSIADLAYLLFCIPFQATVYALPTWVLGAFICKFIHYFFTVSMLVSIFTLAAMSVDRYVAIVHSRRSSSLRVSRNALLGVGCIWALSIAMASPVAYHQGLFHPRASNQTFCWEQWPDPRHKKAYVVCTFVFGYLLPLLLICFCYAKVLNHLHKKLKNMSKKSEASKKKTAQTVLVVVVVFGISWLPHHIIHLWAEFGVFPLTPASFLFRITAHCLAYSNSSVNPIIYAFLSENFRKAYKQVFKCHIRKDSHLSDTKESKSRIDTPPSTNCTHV
Protocol: as §1

CC(C)C[C@H](NC(=O)[C@H](CC(C)C)NC(=O)[C@H](Cc1ccc(O)cc1)NC(=O)CNC(=O)[C@H](C)NC(=O)[C@H](C)NC(=O)[C@H](CC(N)=O)NC(=O)[C@H](CC(C)C)NC(=O)[C@H](CC(N)=O)NC(=O)[C@H](Cc1c[nH]c2ccccc12)NC(=O)[C@@H]1CCC(=O)N1)C(=O)N[C@@H](C)C(=O)N[C@H]1C(=O)N[C@@H](Cc2c[nH]cn2)C(=O)N[C@@H](C)C(=O)N[C@H](C(=O)NCC(=O)O)CS[C@H]1C [Variant M89b, G1pE-T3N-S6A-G12A-methyllanthionine[13–16]-galanin-(1–17)] ([pGlu]WNLNAAGYLLA[dAbu(3S-yl)]HACG-OH; thioether 13-16; C-terminus assumed)
Solubility [1]: improved solubility
EC50 ratios to Gal-(1-15), GAL2R Ca-efflux (GAL2R [2]): 1.4 (3)
EC50 ratios to Gal-(1-15), GAL2R ß-Arrestin (GAL2R [3]): 1.7 (3)
EC50 ratios to Gal-(1-15), GAL1R ß-Arrestin (GAL1R): NA (3) (NA is not active; ratios above 1000 were considered to be not active)

Reference: PMC8804135 (Neurotherapeutics, 2021)
